What was measured:
barnyardgrass [1] = assay: Test A pre-/postemergence herbicide test; type: in vivo, Echinochloa crus-galli
In short: (§1)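 Pre: seeded sandy loam, directed soil spray, compound in non-phytotoxic solvent + surfactant. Post: 1–2-leaf plants (2–10 cm), sprayed to runoff. Greenhouse ~10 d; visual injury vs untreated, 0–100 scale.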

large crabgrass [2] = assay: Test A pre-/postemergence herbicide test; type: in vivo, Digitaria sanguinalis
In short: as §1

giant foxtail [3] = assay: Test A pre-/postemergence herbicide test; type: in vivo, Setaria faberi
In short: as §1

morningglory [4] = assay: Test A pre-/postemergence herbicide test; type: in vivo, Ipomoea spp.
In short: as §1

redroot pigweed = assay: Test A pre-/postemergence herbicide test; type: in vivo, Amaranthus retroflexus
In short: as §1

velvetleaf [5] = assay: Test A pre-/postemergence herbicide test; type: in vivo, Abutilon theophrasti
In short: as §1

barnyardgrass [6] = assay: Test B pre-/postemergence herbicide test; type: in vivo, Echinochloa crus-galli; conditions: for Plant response rating, Barnyardgrass: preemergence; for Barnyardgrass plant response rating: postemergence, visual rating, scale 0 (no effect) to 100 (complete control)
In short: (§2)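 Evaluation is visual, comparing treated with control plants on a scale where 0 means no effect and 100 means full control. Treatments were preemergence, or postemergence on seedlings 2–18 cm tall, and held 13–15 days in the greenhouse.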

Surinam grass = assay: Test B pre-/postemergence herbicide test; type: in vivo, Urochloa decumbens; conditions: for Plant response rating, Surinam Grass: preemergence; for Surinam Grass plant response rating: postemergence, visual rating, scale 0 (no effect) to 100 (complete control)
In short: (§3)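 Seeds were planted and treated preemergence with compounds formulated in a non-phytotoxic solvent mixture containing surfactant, while plants at the 1- to 4-leaf stage (2 to 18 cm) received postemergence sprays. Flooded paddy plants were grown to the 2-leaf stage. After 13 to 15 days in a greenhouse, injury was visually rated 0–100 against untreated controls.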

cocklebur = assay: Test B pre-/postemergence herbicide test; type: in vivo, Xanthium strumarium; conditions: for Plant response rating, Cocklebur: preemergence; for Cocklebur plant response rating: postemergence, visual rating, scale 0 (no effect) to 100 (complete control)
In short: as §2

corn = assay: Test B pre-/postemergence herbicide test; type: in vivo, Zea mays; conditions: for Plant response rating, Corn: preemergence; for Corn plant response rating: postemergence, visual rating, scale 0 (no effect) to 100 (complete control)
In short: as §3

large crabgrass [7] = assay: Test B pre-/postemergence herbicide test; type: in vivo, Digitaria sanguinalis; conditions: for Plant response rating, Crabgrass, Large: preemergence; for Crabgrass, Large plant response rating: postemergence, visual rating, scale 0 (no effect) to 100 (complete control)
In short: as §3

giant foxtail [8] = assay: Test B pre-/postemergence herbicide test; type: in vivo, Setaria faberi; conditions: for Plant response rating, Foxtail, Giant: preemergence; for Foxtail, Giant plant response rating: postemergence, visual rating, scale 0 (no effect) to 100 (complete control)
In short: as §3

lambsquarters = assay: Test B pre-/postemergence herbicide test; type: in vivo, Chenopodium album; conditions: for Plant response rating, Lambsquarters: preemergence; for Lambsquarters plant response rating: postemergence, visual rating, scale 0 (no effect) to 100 (complete control)
In short: as §3

morningglory [9] = assay: Test B pre-/postemergence herbicide test; type: in vivo, Ipomoea coccinea; conditions: for Plant response rating, Morningglory: preemergence; for Morningglory plant response rating: postemergence, visual rating, scale 0 (no effect) to 100 (complete control)
In short: as §2

pigweed = assay: Test B pre-/postemergence herbicide test; type: in vivo, Amaranthus retroflexus; conditions: for Plant response rating, Pigweed: preemergence; for Pigweed plant response rating: postemergence, visual rating, scale 0 (no effect) to 100 (complete control)
In short: as §3

rice [10] = assay: Test B pre-/postemergence herbicide test; type: in vivo, Oryza sativa; conditions: preemergence
In short: as §3

velvetleaf [11] = assay: Test B pre-/postemergence herbicide test; type: in vivo, Abutilon theophrasti; conditions: for Plant response rating, Velvetleaf: preemergence; for Velvetleaf plant response rating: postemergence, visual rating, scale 0 (no effect) to 100 (complete control)
In short: as §3

blackgrass = assay: Test B postemergence herbicide test; type: in vivo, Alopecurus myosuroides; conditions: postemergence, visual rating, scale 0 (no effect) to 100 (complete control)
In short: (§4)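 Each value is a visual 0–100 response rating taken against controls 13 to 15 days after treatment in the greenhouse. Plants received formulated chemical postemergence at the 1- to 4-leaf stage or, in flooded paddy, at the 2-leaf stage.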

wheat = assay: Test B postemergence herbicide test; type: in vivo, Triticum aestivum; set-up: key to Wheat plant response rating: 0 = no effect, 100 = complete control; conditions: postemergence, 500 g ai/ha; visual rating, scale 0 (no effect) to 100 (complete control)
In short: as §4

wild oat = assay: Test B postemergence herbicide test; type: in vivo, Avena fatua; conditions: postemergence, visual rating, scale 0 (no effect) to 100 (complete control)
In short: as §4

rice [12] = assay: Test B flooded paddy test; type: in vivo, Oryza sativa; conditions: 1000 g ai/ha, visual rating, scale 0 to 100 (0 no effect, 100 complete control), 13 to 15 days
In short: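 Visual ratings, 0 (no effect) to 100 (complete control), made versus controls after 13–15 d greenhouse. Paddy plants treated at 2-leaf stage; postemergence plants at 1- to 4-leaf stage, 2–18 cm tall.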

[13] = tested on: small flower umbrella sedge; assay: Test B flooded paddy test; type: in vivo, Cyperus difformis; conditions: 1000 g ai/ha, visual rating, scale 0 to 100 (0 no effect, 100 complete control), 13 to 15 days
In short: as §4

ducksalad = assay: Test B flooded paddy test; type: in vivo, Heteranthera limosa; conditions: 1000 g ai/ha, visual rating, scale 0 to 100 (0 no effect, 100 complete control), 13 to 15 days
In short: as §4

barnyardgrass [14] = assay: Test B flooded paddy test; type: in vivo, Echinochloa crus-galli; conditions: 1000 g ai/ha, visual rating, scale 0 to 100 (0 no effect, 100 complete control), 13 to 15 days
In short: as §4

[15] = Postemergence, 500 g ai/ha, 0 to 100 scale, 0 no effect, 100 complete control
[16] = Postemergence, 2000 g ai/ha, 0 to 100 scale, 0 no effect, 100 complete control
[17] = Preemergence, 500 g ai/ha, visual rating, 0 to 100 scale (0 no effect, 100 complete control)
[18] = Preemergence, 2000 g ai/ha, visual rating, 0 to 100 scale (0 no effect, 100 complete control)
[19] = preemergence, 500 g ai/ha, visual injury, 0 to 100 scale (0 no effect, 100 complete control)
[20] = 500 g ai/ha, visual rating 0-100, 0 no effect, 100 complete control
[21] = 125 g ai/ha, 0 to 100 scale, 0 is no effect, 100 is complete control

CCn1nc(C(C)(C)C)cc1C(=O)Nc1nc(OC)cc(OC)n1 [Compound 166]
Barnyardgrass plant response rating (barnyardgrass [1]; [15]): 0
Plant response rating, Barnyardgrass (barnyardgrass [1]; [16]): 10
Barnyardgrass plant response rating (barnyardgrass [1]; [17]): 0
Barnyardgrass plant response rating (barnyardgrass [1]; [18]): 10
Crabgrass, Large plant response rating (large crabgrass [2]; [15]): 0
Plant response rating, Crabgrass, Large (large crabgrass [2]; [16]): 0
Crabgrass, Large plant response rating (large crabgrass [2]; [17]): 0
Crabgrass, Large plant response rating (large crabgrass [2]; [18]): 30
Foxtail, Giant plant response rating (giant foxtail [3]; [15]): 0
Plant response rating, Foxtail, Giant (giant foxtail [3]; [16]): 20
Foxtail, Giant plant response rating (giant foxtail [3]; [17]): 0
Foxtail, Giant plant response rating (giant foxtail [3]; [18]): 10
Morningglory plant response rating (morningglory [4]; [15]): 0
Plant response rating, Morningglory (morningglory [4]; [16]): 10
Morningglory plant response rating (morningglory [4]; [17]): 0
Morningglory plant response rating (morningglory [4]; [18]): 5
Pigweed plant response rating (redroot pigweed; [15]): 20
Plant response rating, Pigweed (redroot pigweed; [16]): 25
Pigweed plant response rating (redroot pigweed; [18]): 10
Pigweed plant response rating (redroot pigweed; [19]): 0
Velvetleaf plant response rating (velvetleaf [5]; [15]): 20
Plant response rating, Velvetleaf (velvetleaf [5]; [16]): 30
Velvetleaf plant response rating (velvetleaf [5]; [18]): 5
Velvetleaf plant response rating (velvetleaf [5]; [19]): 0
Plant response rating, Barnyardgrass (barnyardgrass [6]; [20]): 0
Barnyardgrass plant response rating (barnyardgrass [6]; 125 g ai/ha): 0
Barnyardgrass plant response rating (barnyardgrass [6]; 500 g ai/ha): 0
Plant response rating, Barnyardgrass (barnyardgrass [6]; [21]): 0
Plant response rating, Surinam Grass (Surinam grass; [20]): 0
Surinam Grass plant response rating (Surinam grass; 125 g ai/ha): 0
Surinam Grass plant response rating (Surinam grass; 500 g ai/ha): 0
Plant response rating, Surinam Grass (Surinam grass; [21]): 0
Plant response rating, Cocklebur (cocklebur; [20]): 0
Cocklebur plant response rating (cocklebur; 125 g ai/ha): 0
Cocklebur plant response rating (cocklebur; 500 g ai/ha): 0
Plant response rating, Cocklebur (cocklebur; [21]): 0
Plant response rating, Corn (corn; [20]): 0
Corn plant response rating (corn; 125 g ai/ha): 0
Corn plant response rating (corn; 500 g ai/ha): 0
Plant response rating, Corn (corn; [21]): 0
Plant response rating, Crabgrass, Large (large crabgrass [7]; [20]): 0
Crabgrass, Large plant response rating (large crabgrass [7]; 125 g ai/ha): 0
Crabgrass, Large plant response rating (large crabgrass [7]; 500 g ai/ha): 0
Plant response rating, Crabgrass, Large (large crabgrass [7]; [21]): 0
Plant response rating, Foxtail, Giant (giant foxtail [8]; [20]): 0
Foxtail, Giant plant response rating (giant foxtail [8]; 125 g ai/ha): 0
Foxtail, Giant plant response rating (giant foxtail [8]; 500 g ai/ha): 0
Plant response rating, Foxtail, Giant (giant foxtail [8]; [21]): 0
Plant response rating, Lambsquarters (lambsquarters; [20]): 0
Lambsquarters plant response rating (lambsquarters; 125 g ai/ha): 0
Lambsquarters plant response rating (lambsquarters; 500 g ai/ha): 0
Plant response rating, Lambsquarters (lambsquarters; [21]): 0
Plant response rating, Morningglory (morningglory [9]; [20]): 0
Morningglory plant response rating (morningglory [9]; 125 g ai/ha): 0
Morningglory plant response rating (morningglory [9]; 500 g ai/ha): 0
Plant response rating, Morningglory (morningglory [9]; [21]): 0
Plant response rating, Pigweed (pigweed; [20]): 0
Pigweed plant response rating (pigweed; 125 g ai/ha): 0
Pigweed plant response rating (pigweed; 500 g ai/ha): 0
Plant response rating, Pigweed (pigweed; [21]): 0
Plant response rating, Rice (rice [10]; [20]): 0
Plant response rating, Rice (rice [10]; [21]): 0
Plant response rating, Velvetleaf (velvetleaf [11]; [20]): 0
Velvetleaf plant response rating (velvetleaf [11]; 125 g ai/ha): 0
Velvetleaf plant response rating (velvetleaf [11]; 500 g ai/ha): 0
Plant response rating, Velvetleaf (velvetleaf [11]; [21]): 0
Blackgrass plant response rating (blackgrass; 125 g ai/ha): 0
Blackgrass plant response rating (blackgrass; 500 g ai/ha): 0
Wheat plant response rating (wheat): 0
Oat, Wild plant response rating (wild oat; 125 g ai/ha): 0
Oat, Wild plant response rating (wild oat; 500 g ai/ha): 0
Rice plant response rating (rice [12]): 0
Sedge, Umbrella plant response rating [13]: 30
Ducksalad plant response rating (ducksalad): 0
Barnyardgrass plant response rating (barnyardgrass [14]): 0
